By IC50 is commonly meant the concentration that gives 50% inhibition.

Structures can show the parent of a compound that is named as a salt. Where two headings read alike, the source gives them in different places.

Data set [1] in a line: Effect of compound on body weight in mice. To be noted: 25 mg/kg active ingredient, three intraperitoneal injections. In kind it is in vivo, C57/BL6 mice. Here is the method: (§1) Adult (P50) C57/BL6 mice from Charles River were used for the experiments. All animal experiments are performed in accordance with international guidelines for proper conduct of animal experiment under jurisdiction of the Swiss law (Permit number ZH-18/2008). For every mouse in the experiment the well-being during the interventions is documented in a score sheet.
The mice are housed under optimal hygienic conditions (OHB) with controlled air-conditioning and lighting (temperature: 20-24° C., humidity: 55-65%, day/night cycle: 12 h/12 h, lights on 7 a.m.). Individually ventilated cages of type II, L (530 cm^2 floor space) with standard litter are used. A maximum of 6 mice is kept in each cage. Mice are fed with standard rodent chow (Extrudat, KLIBA NAFAG) ad libitum and have free access to drinking water. Animal colony is managed and maintained at BioSupport, Schlieren.
(§2) Example 119, mono-lysine salt, was prepared for the dosing as suspension in 20% DMSO, 80% PBS with a final concentration of 2.5 mg/ml active compound (corresponding to 3.13 mg/ml of the lysine salt). First, compound of Example 119, mono-lysine salt, was dissolved in DMSO at a concentration of 15.7 mg/ml. Then sterile PBS was added to get a final concentration of 3.13 mg/ml and the suspension was thoroughly vortexed. The suspension was kept at room temperature in the dark until used.
(§3) 5 adult mice were treated with 10 ml/kg of a 3.13 mg/ml suspension of Example 119, mono-lysine salt. This corresponds to a dose of 25 mg/kg active ingredient. As vehicle control 5 mice were treated with 10 ml/kg of 20% DMSO in PBS. Each mouse received three intraperitoneal injections. Between dose 1 and dose 2 there were 8 h, between dose 2 and dose 3 16 h. 5 h after the last injection the mice were euthanatized with CO2.
Before the first injection the mice were weighted and ˜100 μl of blood was collected from the lateral tail vein. Serum was prepared with centrifugation of blood samples in Microvette 500 Z-Gel tubes (10'000 g, 20° C., 5 min). […]

Data set [2] concerns C-terminal agrin fragment (CAF). The data set is described as follows: Analysis of serum CAF levels by western blotting. In kind it is in vivo, C57/BL6 mice. Here is the method: as §1, §2, §3
Before the first injection the mice were weighted and ˜100 μl of blood was collected from the lateral tail vein. Serum was prepared with centrifugation of blood samples in Microvette 500 Z-Gel tubes (10'000 g, 20° C., 5 min). Supernatant was transferred to an Eppendorf reaction tube and centrifuged again (21'000 g, 20° C., 5 min). Supernatant was transferred to screw top reaction tubes and the serum was stored at −20° C. until analysis. […]
After staining for CAF the membrane was washed thoroughly and reused for a staining for endogenous mouse antibodies that served as loading control. […] After imaging with a Stella imaging system (Raytest) the intensity of the CAF bands was measured with AIDA picture analysis software (Raytest) and normalized to the loading levels determined from mouse antibody light chains. […]

For a further data set, the target named is T1, human neurotrypsin (Homo sapiens, UniProt P56730).
T1 sequence (P56730 21-875): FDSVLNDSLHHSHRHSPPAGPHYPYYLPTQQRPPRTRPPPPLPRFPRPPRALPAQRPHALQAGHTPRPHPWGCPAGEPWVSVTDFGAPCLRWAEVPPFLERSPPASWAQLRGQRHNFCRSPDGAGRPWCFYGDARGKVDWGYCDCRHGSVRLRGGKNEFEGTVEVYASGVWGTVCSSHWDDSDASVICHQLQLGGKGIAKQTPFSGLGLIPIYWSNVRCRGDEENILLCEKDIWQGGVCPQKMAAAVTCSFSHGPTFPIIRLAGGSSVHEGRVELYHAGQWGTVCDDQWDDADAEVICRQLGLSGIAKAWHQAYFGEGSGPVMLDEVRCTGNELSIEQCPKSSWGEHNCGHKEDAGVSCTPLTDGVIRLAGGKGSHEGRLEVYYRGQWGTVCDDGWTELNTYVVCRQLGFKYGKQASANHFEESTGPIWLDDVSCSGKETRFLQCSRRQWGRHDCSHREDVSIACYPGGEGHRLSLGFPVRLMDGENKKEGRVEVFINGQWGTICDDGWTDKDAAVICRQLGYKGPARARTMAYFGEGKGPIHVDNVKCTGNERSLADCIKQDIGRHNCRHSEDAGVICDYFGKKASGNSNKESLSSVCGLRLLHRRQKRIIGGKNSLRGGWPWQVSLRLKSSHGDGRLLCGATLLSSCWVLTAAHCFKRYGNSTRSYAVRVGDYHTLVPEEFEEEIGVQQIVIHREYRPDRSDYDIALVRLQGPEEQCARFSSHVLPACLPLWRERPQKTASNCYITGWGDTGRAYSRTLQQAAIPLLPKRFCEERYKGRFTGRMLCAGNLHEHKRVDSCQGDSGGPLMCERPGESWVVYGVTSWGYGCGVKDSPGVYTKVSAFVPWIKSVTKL
The data set is described as follows: Determination of IC50 for human neurotrypsin. In kind it is biochemical. Here is the method:
Assessment of the potency of compounds of examples 1-311 in inhibiting the enzymatic activity of human neurotrypsin was performed according to the method described in patent application WO 2006/1103261

In a further data set the target is T2, Trypsin (hog trypsin) (Sus scrofa, UniProt P00761).
T2 construct: Trypsin is hog trypsin (Sigma Aldrich); purchased Sigma Aldrich
T2 sequence (P00761 9-231): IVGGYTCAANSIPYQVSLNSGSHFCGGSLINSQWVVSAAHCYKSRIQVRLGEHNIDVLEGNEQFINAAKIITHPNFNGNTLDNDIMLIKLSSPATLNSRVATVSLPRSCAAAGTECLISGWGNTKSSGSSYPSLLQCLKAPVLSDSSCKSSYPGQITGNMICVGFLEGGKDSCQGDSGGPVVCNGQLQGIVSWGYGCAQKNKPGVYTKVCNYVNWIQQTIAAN
Nature of the data set: Determination of the IC50 for various proteases: trypsin. In kind it is biochemical. As to conditions: Mean ± SD. Here is the method: (§4) A 6 mM solution of the test compound in DMSO was prepared. In a V-bottom micro plate the 6 mM compound solution was diluted 6 times in DMSO to obtain a concentration row with the following concentrations: 6 mM, 1.8 mM, 540 μM, 162 μM, 48.8 μM, 14.4 μM, and 4 μM. From this DMSO master plate 1:20 dilutions in 10 mM MOPS pH 8.3 were prepared to obtain solutions of 300, 90, 27, 8.1, 2.44, 0.72 and 0.22 μM in MOPS buffer and 5% DMSO.
(§5) 100 μl of this solution were pipetted into a flat bottom 96 well microplate and placed into a Tecan infinite 200 plate reader. Before measurement, 50 μl of protease solution and, subsequently 50 μl substrate solution were added by the machine. The liberation of free para nitroanilide was detected at 405 nm. The protease solution was freshly prepared by diluting to the desired concentration from a stock solution in 60 mM MOPS; 600 mM NaCl; 20 mM CaCl2; 10% DMSO; 0.4% PEG 6000 pH 8.3. The substrate solution was prepared by dissolving the solid substrate in an adequate amount of water to get the desired concentrations. The used protease and substrate solutions are given below:
(§6) All enzymes except trypsin were from human origin (American diagnostic). Trypsin is hog trypsin (Sigma Aldrich). Substrates were purchased from Chromogenix. […]

For another data set, the target named is T3, Thrombin (Homo sapiens, UniProt P00734).
T3 construct: Thrombin; purchased American diagnostic
The data set is described as follows: Determination of the IC50 for various proteases: thrombin. In kind it is biochemical. To be noted: Mean ± SD. As to the method:
as §4, §5, §6

The target of a further data set is T4, Plasmin (Homo sapiens, UniProt P00747).
T4 construct: Plasmin; purchased American diagnostic
T4 sequence (P00747 581-810 limits assumed): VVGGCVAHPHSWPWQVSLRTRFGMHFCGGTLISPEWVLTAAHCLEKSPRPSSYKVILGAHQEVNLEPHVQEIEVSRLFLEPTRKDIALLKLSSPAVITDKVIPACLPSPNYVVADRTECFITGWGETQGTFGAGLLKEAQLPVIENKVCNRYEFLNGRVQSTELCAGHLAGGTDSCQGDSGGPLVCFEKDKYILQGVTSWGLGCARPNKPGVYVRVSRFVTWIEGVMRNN
T4 sequence (P00747 97-580 partner limits assumed): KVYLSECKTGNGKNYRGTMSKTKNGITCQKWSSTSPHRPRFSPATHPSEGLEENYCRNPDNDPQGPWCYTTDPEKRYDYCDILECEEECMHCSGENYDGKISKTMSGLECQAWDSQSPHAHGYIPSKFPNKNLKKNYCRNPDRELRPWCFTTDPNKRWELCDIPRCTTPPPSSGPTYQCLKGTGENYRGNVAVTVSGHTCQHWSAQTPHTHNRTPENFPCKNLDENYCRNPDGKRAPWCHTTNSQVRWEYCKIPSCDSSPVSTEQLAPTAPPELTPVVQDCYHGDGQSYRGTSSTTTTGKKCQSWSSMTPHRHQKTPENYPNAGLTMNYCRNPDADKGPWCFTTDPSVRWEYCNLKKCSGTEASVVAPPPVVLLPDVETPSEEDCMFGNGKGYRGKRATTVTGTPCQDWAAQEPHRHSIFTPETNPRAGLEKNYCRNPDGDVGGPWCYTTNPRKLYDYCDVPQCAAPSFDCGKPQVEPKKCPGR
Nature of the data set: Determination of the IC50 for various proteases: plasmin. In kind it is biochemical. As to conditions: Mean ± SD. Here is the method: as §4, §5, §6

For a further data set, the target named is Kallikrein (Homo sapiens, UniProt P03952). Nature of the data set: Determination of the IC50 for various proteases: kallikrein. In kind it is biochemical. As to conditions: Mean ± SD. Here is the method:
as §4, §5, §6

For the next data set, the target named is T5, tPA (Homo sapiens, UniProt P00750).
T5 construct: purchased American diagnostic
T5 sequence (P00750 36-562): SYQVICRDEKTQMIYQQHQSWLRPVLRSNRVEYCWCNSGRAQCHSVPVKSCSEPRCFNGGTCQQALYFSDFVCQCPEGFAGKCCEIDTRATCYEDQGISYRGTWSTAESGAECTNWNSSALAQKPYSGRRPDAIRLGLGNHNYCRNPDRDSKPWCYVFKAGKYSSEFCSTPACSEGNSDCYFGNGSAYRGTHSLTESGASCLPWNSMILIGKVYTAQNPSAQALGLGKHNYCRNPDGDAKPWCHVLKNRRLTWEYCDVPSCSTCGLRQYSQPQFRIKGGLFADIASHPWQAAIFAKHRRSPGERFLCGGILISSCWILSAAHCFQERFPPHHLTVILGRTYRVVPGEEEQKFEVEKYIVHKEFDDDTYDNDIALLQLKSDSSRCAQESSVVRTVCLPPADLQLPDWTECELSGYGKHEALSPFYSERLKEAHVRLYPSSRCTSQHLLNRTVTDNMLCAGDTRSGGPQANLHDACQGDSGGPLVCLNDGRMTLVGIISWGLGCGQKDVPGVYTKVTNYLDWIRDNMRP
Nature of the data set: Determination of the IC50 for various proteases: tPA. In kind it is biochemical. As to conditions: Mean ± SD. As to the method: as §4, §5, §6

For the next data set, the target named is T6, uPA (Homo sapiens, UniProt P00749).
T6 construct: purchased American diagnostic
Nature of the data set: Determination of the IC50 for various proteases: uPA. In kind it is biochemical. To be noted: Mean ± SD. As to the method:
as §4, §5, §6

For another data set, the target named is T7, Factor Xa (Homo sapiens, UniProt P00742).
T7 construct: Factor Xa; purchased American diagnostic
T7 sequence (P00742 235-488 limits assumed): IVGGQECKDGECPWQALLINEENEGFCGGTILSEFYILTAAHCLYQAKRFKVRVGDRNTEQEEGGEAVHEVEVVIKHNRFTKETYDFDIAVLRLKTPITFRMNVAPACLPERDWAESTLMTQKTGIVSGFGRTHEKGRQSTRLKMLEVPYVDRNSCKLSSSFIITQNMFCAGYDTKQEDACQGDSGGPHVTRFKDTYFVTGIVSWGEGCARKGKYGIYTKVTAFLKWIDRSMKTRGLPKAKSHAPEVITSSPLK
T7 sequence (P00742 41-179 partner limits assumed): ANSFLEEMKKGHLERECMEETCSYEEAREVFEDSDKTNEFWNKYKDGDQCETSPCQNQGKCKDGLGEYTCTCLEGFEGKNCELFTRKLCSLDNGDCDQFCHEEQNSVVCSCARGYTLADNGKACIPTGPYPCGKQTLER
The data set is described as follows: Determination of the IC50 for various proteases: Factor Xa. As to conditions: Mean ± SD. In kind it is biochemical. As to the method:
as §4, §5, §6

Chain of Kallikrein (P03952 whole entry): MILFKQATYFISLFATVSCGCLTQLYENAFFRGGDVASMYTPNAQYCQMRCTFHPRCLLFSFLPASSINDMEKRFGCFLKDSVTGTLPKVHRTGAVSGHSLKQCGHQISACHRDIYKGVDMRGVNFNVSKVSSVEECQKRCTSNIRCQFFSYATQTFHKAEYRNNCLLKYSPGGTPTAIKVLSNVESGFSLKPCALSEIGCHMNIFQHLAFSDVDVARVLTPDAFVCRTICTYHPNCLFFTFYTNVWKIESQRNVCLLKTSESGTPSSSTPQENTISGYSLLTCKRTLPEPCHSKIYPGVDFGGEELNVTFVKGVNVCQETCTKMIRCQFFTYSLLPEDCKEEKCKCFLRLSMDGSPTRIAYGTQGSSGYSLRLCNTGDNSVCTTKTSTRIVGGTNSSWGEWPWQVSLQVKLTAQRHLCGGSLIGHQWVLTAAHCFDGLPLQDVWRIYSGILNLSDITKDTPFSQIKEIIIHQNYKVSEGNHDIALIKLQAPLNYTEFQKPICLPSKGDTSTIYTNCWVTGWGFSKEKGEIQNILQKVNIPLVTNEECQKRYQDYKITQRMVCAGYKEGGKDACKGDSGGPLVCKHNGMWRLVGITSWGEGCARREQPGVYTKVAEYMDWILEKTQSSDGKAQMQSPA

With `O=C(Nc1ccc(Cl)cc1)c1ccc(NC(=O)c2ccc(-c3nc4cc(Cl)c(Cl)cc4[nH]3)cc2)c(C(=O)O)c1` [Example 119, mono-lysine salt], the “increase in weight loss compared to the vehicle control” value in [1] (adult mice) was “does not produce any increase in weight loss compared to the vehicle control”. The Weight loss in data set [1] (adult mice, post-treatment/pre-treatment weight) is reported as less than 10%. The “Average weight loss (% of T = 0 weigth)” value in data set [1] (mice, weighed before first injection and 5 h after last, n=5) is 5.52 % of T = 0 weigth. Besides, in data set [2] (pooled mouse serum, western blot, post-treatment, 25 mg/kg i.p. x3, normalized to loading control, KO background subtracted), the “CAF levels Average (AU)” value was determined as 0.38 AU. The “CAF levels Average (% of vehicle)” value in data set [2] (pooled mouse serum, western blot, post-treatment, 25 mg/kg i.p. x3, normalized to the vehicle level) was 56.15 % of vehicle. For the same molecule, the CAF levels in data set [2] (serum, pooled samples, mice, 25 mg/kg active ingredient, three intraperitoneal injections, 5 h after last injection, mean ± standard deviation) is recorded as 56.2%±29.0 % of vehicle control.

As for `O=C(Nc1ccc(Cl)cc1)c1ccc(NC(=O)c2ccc(-c3nc4cc(Cl)c(Cl)cc4[nH]3)cc2)c(C(=O)O)c1` [Example 119], the IC50 was 0.51 ± 0.16 µM on human neurotrypsin (Mean ± SD, read-out: IC50 Neurotrypsin); 0.4 µM at human neurotrypsin (human neurotrypsin, method of WO 2006/1103261, read-out: Neurotrypsin IC50); more than 150 µM against Trypsin (hog trypsin); 37.7 ± 25.2 µM against Thrombin; 2.4 ± 1.6 µM at Plasmin; 27.1 ± 9.2 µM at Kallikrein. Also, the IC50 is 47.1 ± 22.4 µM at tPA, more than 40 µM on uPA and 39.8 ± 33.3 µM at Factor Xa.

The values are drawn from patent US20130261130A1, “NEUROTRYPSIN INHIBITORS” (priority 2010, published 2013).
